Laboratory results published in patent US20190369111A1, “MOLECULAR KINETICS EVALUATION METHOD AND SCREENING METHOD” (Tokyo University of Science Foundation, priority 2016, published 2019).

Molecular target: T1, SOS1 protein (Homo sapiens, UniProt Q07889)
T1 construct: endogenous in cells; host or cells: HeLa cells
T1 sequence (Q07889 1-1333): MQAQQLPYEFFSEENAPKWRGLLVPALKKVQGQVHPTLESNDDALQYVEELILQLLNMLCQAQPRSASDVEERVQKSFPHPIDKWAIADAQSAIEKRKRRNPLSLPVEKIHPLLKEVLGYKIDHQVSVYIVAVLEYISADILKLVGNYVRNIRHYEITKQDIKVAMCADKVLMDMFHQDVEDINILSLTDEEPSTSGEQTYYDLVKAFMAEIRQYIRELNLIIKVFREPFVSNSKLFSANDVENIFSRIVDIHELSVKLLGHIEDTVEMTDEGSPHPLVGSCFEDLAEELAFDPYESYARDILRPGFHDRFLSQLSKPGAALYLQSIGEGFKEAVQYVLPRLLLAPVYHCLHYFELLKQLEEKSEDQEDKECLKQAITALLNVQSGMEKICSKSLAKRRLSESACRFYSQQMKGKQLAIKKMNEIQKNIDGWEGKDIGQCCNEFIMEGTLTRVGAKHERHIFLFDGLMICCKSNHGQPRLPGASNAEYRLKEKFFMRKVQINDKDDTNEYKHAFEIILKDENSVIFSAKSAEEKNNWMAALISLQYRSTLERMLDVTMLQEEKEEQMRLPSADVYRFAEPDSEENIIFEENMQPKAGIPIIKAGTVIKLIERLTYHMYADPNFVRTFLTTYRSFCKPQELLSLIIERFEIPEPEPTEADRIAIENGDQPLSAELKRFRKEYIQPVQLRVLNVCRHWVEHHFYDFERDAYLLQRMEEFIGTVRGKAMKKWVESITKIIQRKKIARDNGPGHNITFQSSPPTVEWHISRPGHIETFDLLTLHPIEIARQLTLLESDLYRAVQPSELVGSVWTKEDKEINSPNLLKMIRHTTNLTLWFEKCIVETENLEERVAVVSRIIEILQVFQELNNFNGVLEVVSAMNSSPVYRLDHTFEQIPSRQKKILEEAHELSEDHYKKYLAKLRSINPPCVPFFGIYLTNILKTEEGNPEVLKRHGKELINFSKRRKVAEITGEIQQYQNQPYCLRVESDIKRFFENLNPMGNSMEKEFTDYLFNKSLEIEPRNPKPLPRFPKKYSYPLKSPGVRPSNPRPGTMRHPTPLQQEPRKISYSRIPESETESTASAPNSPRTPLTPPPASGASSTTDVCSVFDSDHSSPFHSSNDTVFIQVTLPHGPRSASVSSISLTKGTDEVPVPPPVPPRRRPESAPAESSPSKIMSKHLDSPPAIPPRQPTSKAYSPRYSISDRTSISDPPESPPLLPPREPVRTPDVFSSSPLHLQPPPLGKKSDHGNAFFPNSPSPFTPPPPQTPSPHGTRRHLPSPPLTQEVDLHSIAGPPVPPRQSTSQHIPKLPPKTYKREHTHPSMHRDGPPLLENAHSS
Experiment: Amount of SOS1 protein in HeLa cells, Western blot analysis
Type: cell-based
Conditions: 48 hours after addition
Experimental: HeLa cells were seeded in a 24-well plate at a cell density of 8×10^4 cells/well, and then cultured under conditions of 37° C. and 5 vol % CO2 for 16 hours.
After 16 hours from cell seeding, TUS-007 was added to HeLa cells as follows. As a medium, a serum-free medium (37° C.) in which 1 mass % L-glutamine solution (Sigma-Aldrich) was added to D-MEM (high D-glucose, phenol red, sodium pyruvate (Wako Pure Chemical Industries, Ltd.)) was used. It is noted that the L-glutamine solution was added immediately before use. A DMSO solution containing TUS-007 was mixed with the medium so that the concentration of DMSO was 1 vol %, and added to each well at 500 μL/well, and cultured under conditions of 37° C. and 5 vol % CO2. As a control, DMSO was used.
The medium was removed 48 hours after addition of TUS-007, and then PBS was added to wash the cells. […]
After electrophoresis, proteins were transferred to a PVDF membrane (Immobion™-P, Millipore) under conditions of 100 V and 2 hours using a tank-type blotting device and a transfer buffer (25 mM Tris-HCl, 195 mM glycine, 0.01% SDS, 15% methanol). […] Subsequently, the membrane was treated with a chemiluminescence reagent Immobilon™ Western (Millipore), and then chemiluminescence was detected using a lumino image analyzer LAS-3000 (FUJIFILM Corporation). […]

CC[C@@H](C)[C@H](NC(=O)CCCCCCNC(=O)[C@H](CC(C)C)NC(=O)CNC(=O)c1cc(Cl)ccc1Cl)C(=O)Nc1ccc2[nH]c(Cc3c[nH]c4ccccc34)nc2c1 [TUS-007]
amount of SOS1 protein: not reduced
